Laboratory results reported in patent publication US20230172205A1 (priority 2020, published 2023).

Assays:
[1] = system: Phakopsora pachyrhizi, strain with amino acid substitution F129L in the mitochondrial cytochrome b protein; assay: Protective control of soybean rust on soybeans (PHAKPA P6); assay type: in vivo
[2] = system: Phakopsora pachyrhizi, strain with amino acid substitution F129L in the mitochondrial cytochrome b protein; assay: Protective control of soybean rust on soybeans (PHAKPA P2); assay type: in vivo; conditions: for PHAKPA (F129L) Disease level (%), P2 at 16 ppm: Table C4, untreated >90
[3] = system: Pyricularia oryzae; assay: microbe, parasite or virus in culture; assay type: cell-based; conditions: 0.016 ppm
[4] = system: Alternaria solani, Qo inhibitor-resistant isolate containing F129L in the mitochondrial cytochrome b protein; assay: Micro titer plate test, activity against Alternaria solani causing early blight (ALTESO), F129L; assay type: cell-based; conditions: Table C11a; 0.016 ppm
[5] = Table C4, 16 ppm, untreated >85
[6] = protective P6, 4 ppm, soybean rust F129L strain
[7] = protective P6, 16 ppm, soybean rust F129L strain
[8] = protective P2, 4 ppm, soybean rust F129L strain
[9] = protective P2, 16 ppm, soybean rust F129L strain
[10] = Table C2, protective, inoculation six days after spraying, 4 ppm, % diseased leaf area on soybean, untreated 99
[11] = Table 1, protective P6, 4 ppm, F129L strain
[12] = Table 1, protective P6, 16 ppm, F129L strain
[13] = Table 1, protective P2, 4 ppm, F129L strain
[14] = Table 1, protective P2, 16 ppm, F129L strain

| SMILES | PHAKPA (F129L) Disease level (%), P6 at 16 ppm [1, 5] | % PHAKPA (F129L) Disease level, P6 at 16 ppm [1, 7] | PHAKPA (F129L) Disease level (%), P2 at 16 ppm ([2]; 16 ppm) | % PHAKPA (F129L) Disease level, P2 at 16 ppm [2, 9] | % PHAKPA (F129L) Disease level, P6 at 4 ppm [1, 11] | % PHAKPA (F129L) Disease level, P6 at 16 ppm [1, 12] | % PHAKPA (F129L) Disease level, P2 at 4 ppm [2, 13] | % PHAKPA (F129L) Disease level, P2 at 16 ppm [2, 14] | also measured |
| --- | --- | --- | --- | --- | --- | --- | --- | --- | --- |
| CO/N=C(/C(=O)OC)c1cccc(C)c1CO/N=C(\C)c1ccccc1F [Ex. 1, Methyl (2E)-2-[2-[[(E)-3-(2-fluorophenyl)ethylideneamino]oxymethyl]-3-methyl-phenyl]-2-methoxyimino-acetate] | 47% | 56% | 28% | 27% |  |  |  |  | % PHAKPA (F129L) Disease level, P6 at 4 ppm [1, 6]: 90%; % PHAKPA (F129L) Disease level, P2 at 4 ppm [2, 8]: 80% |
| CNC(=O)/C(=N/OC)c1cccc(C)c1CO/N=C(\C)c1cccc(C(F)(F)F)c1 [Ex. 8] |  |  |  |  |  |  |  |  | PHAKPA (F129L) Disease level (%) P6 at 4 ppm ([1]; P6 at 4 ppm, untreated 75%): 1%; PHAKPA (F129L) Disease level (%) P6 at 4 ppm [1, 10]: 13%; Fungal growth (%) PYRIOR ([3]; Table C11a): 13%; Fungal growth (%) ALTESO F129L [4]: 52% |
| CO/N=C(/C(=O)OC)c1cccc(C)c1CO/N=C(\C)c1cccc(C(F)(F)F)c1 [Ex. 9] |  |  |  |  |  |  |  |  | PHAKPA (F129L) Disease level (%), P6 at 16 ppm ([1]; P6 at 16 ppm, untreated 75%): 1%; PHAKPA (F129L) Disease level (%), P6 at 16 ppm ([1]; Table C1, protective, inoculation six days after spraying, 16 ppm, % diseased leaf area on soybean): 4%; Fungal growth (%) PYRIOR ([3]; Table C9): 38%; PHAKPA (F129L) Disease level (%) P2 at 4 ppm ([2]; Table C1, protective, inoculation 2 days after spraying, 4 ppm, % diseased leaf area on soybean): 35%; PHAKPA (F129L) Disease level (%) P2 at 4 ppm ([2]; Table C7b, 4 ppm, untreated 92): 6% |
| CO/N=C(/C(=O)OC)c1cccc(C)c1CO/N=C(\C)c1cccc(OC(F)(F)F)c1 [Ex. 28] | 18% | 0% | 30% | 0% |  |  |  |  |  |
| CO/N=C(/C(=O)OC)c1cccc(C)c1CO/N=C(\C)c1cccc(C)c1 [Ex. 76] | 0% |  |  |  |  |  |  |  | PHAKPA (F129L) Disease level (%), P6 at 16 ppm ([1]; P6 at 16 ppm, untreated 75%): 4% |
| CNC(=O)/C(=N/OC)c1cccc(C)c1CO/N=C(\C)c1cc(F)ccc1F [Ex. 131] | 0% | 0% | 0% | 0% |  |  |  |  | % PHAKPA (F129L) Disease level, P6 at 4 ppm [1, 6]: 2%; % PHAKPA (F129L) Disease level, P2 at 4 ppm [2, 8]: 0% |
| CO/C=C(/C(=O)OC)c1cccc(C)c1CO/N=C(\C)c1cccc(C(F)(F)F)c1 [Ex. 231] |  |  |  |  | 2% | 0% | 0% | 0% | PHAKPA (F129L) Disease level (%) P6 at 4 ppm [1, 10]: 2%; PHAKPA (F129L) Disease level (%) P2 at 4 ppm ([2]; Table C2, protective, inoculation 2 days after spraying, 4 ppm, % diseased leaf area on soybean, untreated 100): 0% |
| CO/C=C(/C(=O)OC)c1cccc(C)c1CO/N=C(\C)c1ccccc1C(F)(F)F [Ex. 244] | 2% |  | 0% |  | 15% | 2% | 14% | 0% |  |
| CO/N=C(/C(=O)OC)c1cccc(C)c1CO/N=C(\C)c1c(F)ccc(C(F)(F)F)c1F [compound 156] |  | 3% |  | 0% |  |  |  |  | % PHAKPA (F129L) Disease level, P6 at 4 ppm [1, 6]: 47%; % PHAKPA (F129L) Disease level, P2 at 4 ppm [2, 8]: 27% |
| CNC(=O)/C(=N/OC)c1cccc(C)c1CO/N=C(\C)c1ccc(OC)cc1OC(F)(F)F [compound 337] |  |  |  |  | 13% | 1% | 9% | 0% |  |
| CNC(=O)/C(=N/OC)c1cccc(C)c1CO/N=C(\C)c1c(F)cc(Br)cc1OC(F)(F)F [compound 355] |  |  |  |  | 48% | 4% | 34% | 7% |  |
| COC=C(C(=O)OC)c1cccc(C)c1CON=C(C)c1cc(F)c(F)cc1CC(F)(F)F [compound 405] |  |  |  |  | 70% | 27% | 97% | 27% |  |
| CNC(=O)/C(=N/OC)c1cccc(C)c1CO/N=C(\C)c1ccc(-c2ccccc2)cc1C(F)(F)F [compound 413] |  |  |  |  | 33% | 15% | 40% | 15% |  |
